From patent US12201610B2, “Compositions comprising aticaprant” (Janssen Pharmaceuticals, Inc., priority 2022, dated 2025)
Read-outs that look alike come from different tables or passages of the source. Marks after values point to notes of the source that are not given here.

What was measured:
[1] = Phase 1 PK Part 2: relative bioavailability, dose proportionality, food effect of milled API tablet; assay type: in vivo, human
Method: This is a Phase 1, open-label, single dose, multicenter, 4-part study in healthy adult participants.
Potential participants will be screened from Day −28 to Day −2 to determine participants' eligibility for study participation. For Part 1, qualified participants will be admitted on Day −1 of each treatment period and will remain in-house for the total duration of the treatment (Day −1 until Day 5, with single-dose treatment on Day 1 and 96 hours of PK), whereas for Part 2, PK sampling will be done up to 120 hours (Day 6). Each dosed participant will have a safety follow-up on Day 10 to Day 14 after last dose of the study intervention.
The Part 2 of the study involves determination of relative bioavailability for tablet (Formulation Concept 2, i.e., milled (microfine) aticaprant formulation; see Table 10) and capsule formulations (see Example 6, study design, for description of capsule formulation) and dose proportionality and food effect for tablet formulation (Formulation Concept 2) in healthy adult participants (FIG. 26). Part 2 will consist of Subpart 2A and Subpart 2B consisting of a total of 4 periods. […] Participants will be assigned to 1 of 6 treatment sequences (Table 55) and will be administered the 3 treatments in a 3-way crossover. The same 24 participants who complete Subpart 2A will be enrolled in Subpart 2B. Subpart 2B consists of a fourth period to evaluate the food effect of a single dose of 10 mg aticaprant administered as 1×10 mg oral tablet (Formulation Concept 2) under fed conditions (Treatment H; Tables 54 and 56). A preliminary PK analysis will be conducted at the end of the food effect part (Subpart 2B) for all the periods from Part 2 and will include the food effect data.
For each individual participant, there will be a washout period of at least 7 days for Part 1 and at least 8 days for Part 2 between subsequent intakes of the study intervention. Day 1 of a treatment period (day of study intervention intake) is the first day of the washout period (also in between the study parts, if applicable).
Participants will be fasting in Part 1A and Part 2A. Participants will have been fed in Parts 1B and 2B. For a fasted condition, participants will fast (nothing to cat or drink except noncarbonated water) overnight for at least 10 hours before and until 4 hours after study intervention administration during each fasted treatment period. Approximately, 4 hours post-dose and after the 4-hour PK sampling, a standard lunch will be served at the study-site. Intake of water is allowed until 2 hours before the intake of the study intervention. Thereafter, water intake is only allowed for study intervention intake and for breakfast, if applicable. Drinking of water is allowed ad libitum from approximately 2 hours after dosing. For a fed condition, participants will consume, after an overnight fast (at least 10 hours), a standardized high-fat breakfast within a 20-minute period. […] Study intervention will be administered approximately 30 minutes after the start of the breakfast.
In Parts 1 and 2, plasma concentrations will be determined for aticaprant. Blood samples for determination of plasma concentrations of aticaprant will be collected predose and at the postdose time points starting on Day 1 as indicated in the Tables 57-58.
The following plasma PK parameters of aticaprant will be determined. A noncompartmental model with extravascular input will be used for the pharmacokinetic analysis.
Based on the individual concentration-time data, using the actual sampling times, the following PK parameters will be derived for aticaprant: […]

subjects with MDD = experiment: HAM-A6 total score (Example 6); assay type: in vivo, human; conditions: 10 mg; Treatment Week 6; 59 subjects analyzed
Text: v. To investigate the effect of aticaprant on symptoms of anxiety using the HAM-A and on core symptoms of anxiety using the HAM-A6 subscale.
• (i) Depression: Montgomery-Åsberg Depression Rating Scale (MADRS), Clinical Global Impression-Severity (CGI-S), Symptoms of Major Depressive Disorder Scale (SMDDS), and Self-assessment of treatment experience (SATE) • (ii) Anhedonia: Snaith-Hamilton Pleasure Scale (SHAPS) • (iii) Anxiety: Structured Interview Guide for the Hamilton Anxiety scale (SIGH-A) and HAM-A6 • (iv) Effects on Cognition: The Cognitive and Physical Functioning Questionnaire (CPFQ) • (v) Safety assessments

[2] = Plasma Cmax of aticaprant in subjects with MDD (Example 6); assay type: in vivo; conditions: human, oral, 10 mg, 10 mg once daily, read-out: Cmax, Arithmetic Mean (SD)
Text: vi. To assess the plasma PK of aticaprant in subjects with MDD and explore its relationship with efficacy and safety parameters.
Cmax is defined as maximum plasma concentration of aticaprant. […] Here ‘N’ (number of subjects analyzed) includes the number of subjects evaluable for this endpoint. Here ‘n’ (number analyzed) included all subjects evaluable for specified time point categories.

[3] = Dose proportionality: Treatment G (5 mg milled API tablet normalized to 10 mg, Test)/Treatment F (10 mg, Reference), fasting
[4] = Food effect: Treatment H (high-fat diet, Test)/Treatment F (fasted, Reference), 10 mg milled API tablet
[5] = Relative BA: Treatment F (10 mg milled API tablet, Test)/Treatment E (2 × 5 mg capsule, Reference), fasting
[6] = Treatment E: 2 × 5 mg oral capsule, fasting, mean
[7] = Treatment F: 1 × 10 mg Formulation Concept 2 (milled API tablet), fasting, mean (SD)
[8] = Treatment G (1 × 5 mg Formulation Concept 2, fasting), dose normalized to 10 mg, mean (SD)
[9] = Treatment G: 1 × 5 mg Formulation Concept 2 (milled API tablet), fasting, mean
[10] = Treatment H: 1 × 10 mg Formulation Concept 2 (milled API tablet), after high-fat breakfast, mean

For `Cc1cc(C)cc(C2CCCN2Cc2ccc(Oc3ccc(C(N)=O)cc3F)cc2)c1` (centres unmarked) [aticaprant, 3-fluoro-4-4-2-(3,5-dimethylphenyl)pyrrolidin-1-yl-methylphenoxybenzamide], the Geometric Mean Cmax ([1]; Dose proportionality, completers, Treatment G (Test): 1 × 5 mg Formulation Concept 2, fasting, Dose Normalized to 10 mg) was 32.5 ng/mL, the “Ratio of Geometric Means, AUClast” value [1, 3] was 104.15% and the “Ratio of Geometric Means, AUC∞” value [1, 3] was 106.40%. For the same compound, the “Ratio of Geometric Means, Cmax” value [1, 3] was 105.13%, the “Ratio of Geometric Means, AUClast” value [1, 4] was 134.90% and the “Ratio of Geometric Means, AUC∞” value [1, 4] was 135.55%. The “Ratio of Geometric Means, Cmax” value [1, 4] was 107.30%, the “Ratio of Geometric Means, AUClast” value [1, 5] was 94.31% and the “Ratio of Geometric Means, AUC∞” value [1, 5] was 93.66%. For the same compound, the “Ratio of Geometric Means, Cmax” value [1, 5] was 102.30%, the “% AUC∞, ex” value [1, 6] was 5.02% and the CL/F [1, 6] was 34.8 L/h. The λz [1, 6] was 0.024 h⁻¹, the “% AUC∞, ex” value [1, 7] was 5.50 (3.17) % and the CL/F [1, 7] was 35.8 (12.1) L/h. For the same compound, the Cmax [1, 7] was 32.4 (7.39) ng/mL, the λz [1, 7] was 0.024 (0.007) 1/h and the “AUClast, G Dose Normalized” value [1, 8] was 314 (160) h * ng/mL. For the same compound, the “AUC∞, G Dose Normalized” value [1, 8] was 308 (74.1)^a h * ng/mL, the “Cmax, G Dose Normalized” value [1, 8] was 34.7 (11.6) ng/mL and the “% AUC∞, ex” value [1, 9] was 6.93%. For the same compound, the CL/F [1, 9] was 34.7 L/h, the λz [1, 9] was 0.030 h⁻¹ and the “% AUC∞, ex” value [1, 10] was 4.92%. For the same compound, the CL/F [1, 10] was 27.0 L/h, the Cmax [1, 10] was 34.0 ng/mL and the λz [1, 10] was 0.025 h⁻¹. It also gave an AUC(0-t) ([1]; human, plasma, oral, 5 mg, Dose proportionality, completers, Treatment G (Test): 1 × 5 mg Formulation Concept 2, fasting, Dose Normalized to 10 mg, read-out: Geometric Mean AUClast) of 285 ng·h/mL, an AUC(0-inf) ([1]; human, plasma, oral, 5 mg, Dose proportionality, completers, Treatment G (Test): 1 × 5 mg Formulation Concept 2, fasting, Dose Normalized to 10 mg, read-out: Geometric Mean AUC∞) of 296 ng·h/mL and a half-life ([1]; human, plasma, oral, 5 mg, Treatment G: 1 × 5 mg Formulation Concept 2 (milled API tablet), fasting, mean) of 26.6 h. For the same compound, the AUC(0-t) ([1]; human, plasma, oral, 5 mg, Treatment G: 1 × 5 mg Formulation Concept 2 (milled API tablet), fasting, mean, read-out: AUClast) was 157 ng·h/mL, the AUC(0-inf) ([1]; human, plasma, oral, 5 mg, Treatment G: 1 × 5 mg Formulation Concept 2 (milled API tablet), fasting, mean, read-out: AUC∞) was 154 ng·h/mL and the Cmax ([1]; human, plasma, oral, 5 mg, Treatment G: 1 × 5 mg Formulation Concept 2 (milled API tablet), fasting, mean, read-out: Cmax) was 17.4 ng/mL. For the same compound, the Tmax ([1]; human, plasma, oral, 5 mg, Treatment G: 1 × 5 mg Formulation Concept 2 (milled API tablet), fasting, median) was 1 h, the AUC(0-t) ([1]; human, plasma, oral, 10 mg, Dose proportionality, completers, Treatment F (Reference): 1 × 10 mg Formulation Concept 2, fasting, read-out: Geometric Mean AUClast) was 274 ng·h/mL and the AUC(0-inf) ([1]; human, plasma, oral, 10 mg, Dose proportionality, completers, Treatment F (Reference): 1 × 10 mg Formulation Concept 2, fasting, read-out: Geometric Mean AUC∞) was 279 ng·h/mL. For the same compound, the Cmax ([1]; human, plasma, oral, 10 mg, Dose proportionality, completers, Treatment F (Reference): 1 × 10 mg Formulation Concept 2, fasting, read-out: Geometric Mean Cmax) was 30.9 ng/mL, the AUC(0-t) ([1]; human, plasma, oral, 10 mg, Food effect, completers, Treatment F (Reference): 1 × 10 mg milled API tablet, fasted, read-out: Geometric Mean AUClast) was 279 ng·h/mL and the AUC(0-inf) ([1]; human, plasma, oral, 10 mg, Food effect, completers, Treatment F (Reference): 1 × 10 mg milled API tablet, fasted, read-out: Geometric Mean AUC∞) was 280 ng·h/mL. For the same compound, the Cmax ([1]; human, plasma, oral, 10 mg, Food effect, completers, Treatment F (Reference): 1 × 10 mg milled API tablet, fasted, read-out: Geometric Mean Cmax) was 31.3 ng/mL, the AUC(0-t) ([1]; human, plasma, oral, 10 mg, Food effect, completers, Treatment H (Test): 1 × 10 mg milled API tablet, high-fat diet, read-out: Geometric Mean AUClast) was 377 ng·h/mL and the AUC(0-inf) ([1]; human, plasma, oral, 10 mg, Food effect, completers, Treatment H (Test): 1 × 10 mg milled API tablet, high-fat diet, read-out: Geometric Mean AUC∞) was 379 ng·h/mL. For the same compound, the AUC(0-t) ([1]; human, plasma, oral, 10 mg, Relative BA, completers, Treatment F (Test): 1 × 10 mg Formulation Concept 2 (milled API tablet), fasting, read-out: Geometric Mean AUClast) was 274 ng·h/mL, the AUC(0-inf) ([1]; human, plasma, oral, 10 mg, Relative BA, completers, Treatment F (Test): 1 × 10 mg Formulation Concept 2 (milled API tablet), fasting, read-out: Geometric Mean AUC∞) was 279 ng·h/mL and the Cmax ([1]; human, plasma, oral, 10 mg, Relative BA, completers, Treatment F (Test): 1 × 10 mg Formulation Concept 2 (milled API tablet), fasting, read-out: Geometric Mean Cmax) was 30.9 ng/mL. The half-life ([1]; human, plasma, oral, 10 mg, Treatment F: 1 × 10 mg Formulation Concept 2 (milled API tablet), fasting, mean (SD)) was 31 h, the AUC(0-t) ([1]; human, plasma, oral, 10 mg, Treatment F: 1 × 10 mg Formulation Concept 2 (milled API tablet), fasting, mean (SD), read-out: AUClast) was 297 ng·h/mL and the AUC(0-inf) ([1]; human, plasma, oral, 10 mg, Treatment F: 1 × 10 mg Formulation Concept 2 (milled API tablet), fasting, mean (SD), read-out: AUC∞) was 318 ng·h/mL. For the same compound, the Tmax ([1]; human, plasma, oral, 10 mg, Treatment F: 1 × 10 mg Formulation Concept 2 (milled API tablet), fasting, median (range)) was 1.5 h, the half-life ([1]; human, plasma, oral, 10 mg, Treatment H: 1 × 10 mg Formulation Concept 2 (milled API tablet), after high-fat breakfast, mean) was 30.8 h and the AUC(0-t) ([1]; human, plasma, oral, 10 mg, Treatment H: 1 × 10 mg Formulation Concept 2 (milled API tablet), after high-fat breakfast, mean, read-out: AUClast) was 388 ng·h/mL. It also gave an AUC(0-inf) ([1]; human, plasma, oral, 10 mg, Treatment H: 1 × 10 mg Formulation Concept 2 (milled API tablet), after high-fat breakfast, mean, read-out: AUC∞) of 388 ng·h/mL, a Tmax ([1]; human, plasma, oral, 10 mg, Treatment H: 1 × 10 mg Formulation Concept 2 (milled API tablet), after high-fat breakfast, median) of 2 h and an AUC(0-t) ([1]; human, plasma, po, 10 mg, Relative BA, completers, Treatment E (Reference): 2 × 5 mg oral capsule, fasting, read-out: Geometric Mean AUClast) of 291 ng·h/mL. The AUC(0-inf) ([1]; human, plasma, po, 10 mg, Relative BA, completers, Treatment E (Reference): 2 × 5 mg oral capsule, fasting, read-out: Geometric Mean AUC∞) was 297 ng·h/mL, the Cmax ([1]; human, plasma, po, 10 mg, Relative BA, completers, Treatment E (Reference): 2 × 5 mg oral capsule, fasting, read-out: Geometric Mean Cmax) was 30.2 ng/mL and the half-life ([1]; human, plasma, po, 10 mg, Treatment E: 2 × 5 mg oral capsule, fasting, mean) was 30.5 h. The AUC(0-t) ([1]; human, plasma, po, 10 mg, Treatment E: 2 × 5 mg oral capsule, fasting, mean, read-out: AUClast) was 308 ng·h/mL, the AUC(0-inf) ([1]; human, plasma, po, 10 mg, Treatment E: 2 × 5 mg oral capsule, fasting, mean, read-out: AUC∞) was 307 ng·h/mL and the Cmax ([1]; human, plasma, po, 10 mg, Treatment E: 2 × 5 mg oral capsule, fasting, mean, read-out: Cmax) was 31.7 ng/mL. The Tmax ([1]; human, plasma, po, 10 mg, Treatment E: 2 × 5 mg oral capsule, fasting, median) was 2 h, the “Change from Treatment Baseline in HAM-A6 Total Score, Arithmetic Mean (SD)” value (subjects with MDD) was −2.73 ± 2.651 scores on a scale and the Cmax ([2]; Week 1, eITT) was 32.7 ± 10.9 ng/mL. The Cmax ([2]; Week 3, eITT) was 33.5 ± 11.1 ng/mL and the Cmax ([2]; Week 6, eITT) was 34.3 ± 11.1 ng/mL.
